PubChem BioAssay AID2060910 (Molecular Pharmacology Branch, DTP, NCI, 2025)
Values belong to the compound of their own block, whether it stands above or below them.

Tested on: 242566-281-R-J2-PDC complex spheroid viability
Assay: Anticancer human tumor 242566-281-R-J2-PDC patient-derived pancreatic carcinoma cell line growth inhibition [RAS]
Conditions: for viability, T/C: stronger effect = lower value
Summary of the method: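 Tumour cells grown as complex spheroids with HUVEC endothelial cells and mesenchymal stem cells, treated with RAS pathway inhibitor combinations. Each agent spans half-log steps from near clinical Cmax, or 10 microM where Cmax is unknown.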

[1] = curve of first compound, second compound 0.0316 µM
[2] = curve of first compound, second compound 0.1 µM
[3] = curve of first compound, second compound 0.316 µM
[4] = curve of first compound, second compound 1 µM
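Also: spheroids exposed to compound for 7 days before readout.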
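For viability, T/C in this document: 100% = DMSO vehicle control wells.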

IC50 [1]: > 300 nM | IC50 [2]: > 300 nM | IC50 [3]: > 300 nM | IC50 [4]: > 300 nM | IC50 (curve of first compound, second compound 3.16 µM): > 300 nM | IC50 (curve of first compound, second compound 10 µM): < 0.949 nM
Structure (SMILES): CC1(C)CCC(Nc2ncc(C(F)(F)F)c(-c3c[nH]c4c(P(C)(C)=O)c(C#N)ccc34)n2)CN1 (stereo unspecified) + C#Cc1c(F)ccc2cc(O)cc(-c3ncc4c(N5CC6CCC(C5)N6)nc(OCC56CCCN5CC(F)C6)nc4c3F)c12
viability, T/C (second compound 0.0316 µM, first compound 0.000949 µM): 90.3% | viability, T/C (second compound 0.0316 µM, first compound 0.003 µM): 111% | viability, T/C (second compound 0.0316 µM, first compound 0.00949 µM): 85.6% | viability, T/C (second compound 0.0316 µM, first compound 0.03 µM): 86.4% | viability, T/C (second compound 0.0316 µM, first compound 0.0949 µM): 84.9% | viability, T/C (second compound 0.0316 µM, first compound 0.3 µM): 88.8% | viability, T/C (second compound 0.1 µM, first compound 0.000949 µM): 78.1% | viability, T/C (second compound 0.1 µM, first compound 0.003 µM): 81.8% | viability, T/C (second compound 0.1 µM, first compound 0.00949 µM): 71.6% | viability, T/C (second compound 0.1 µM, first compound 0.03 µM): 81.7% | viability, T/C (second compound 0.1 µM, first compound 0.0949 µM): 81.2% | viability, T/C (second compound 0.1 µM, first compound 0.3 µM): 81.3% | viability, T/C (second compound 0.316 µM, first compound 0.000949 µM): 70.7% | viability, T/C (second compound 0.316 µM, first compound 0.003 µM): 66.6% | viability, T/C (second compound 0.316 µM, first compound 0.00949 µM): 62.3% | viability, T/C (second compound 0.316 µM, first compound 0.03 µM): 60.5% | viability, T/C (second compound 0.316 µM, first compound 0.0949 µM): 62.9% | viability, T/C (second compound 0.316 µM, first compound 0.3 µM): 62.9% | viability, T/C (second compound 1 µM, first compound 0.000949 µM): 59.4% | viability, T/C (second compound 1 µM, first compound 0.003 µM): 59.8% | viability, T/C (second compound 1 µM, first compound 0.00949 µM): 49.3% | viability, T/C (second compound 1 µM, first compound 0.03 µM): 47.4% | viability, T/C (second compound 1 µM, first compound 0.0949 µM): 55.1% | viability, T/C (second compound 1 µM, first compound 0.3 µM): 59.5% | viability, T/C (second compound 3.16 µM, first compound 0.000949 µM): 50.8% | viability, T/C (second compound 3.16 µM, first compound 0.003 µM): 57.5% | viability, T/C (second compound 3.16 µM, first compound 0.00949 µM): 48.4% | viability, T/C (second compound 3.16 µM, first compound 0.03 µM): 47.4% | viability, T/C (second compound 3.16 µM, first compound 0.0949 µM): 49.8% | viability, T/C (second compound 3.16 µM, first compound 0.3 µM): 53.3% | viability, T/C (second compound 10 µM, first compound 0.000949 µM): 45.2% | viability, T/C (second compound 10 µM, first compound 0.003 µM): 50% | viability, T/C (second compound 10 µM, first compound 0.00949 µM): 44.7% | viability, T/C (second compound 10 µM, first compound 0.03 µM): 50.2% | viability, T/C (second compound 10 µM, first compound 0.0949 µM): 53.4% | viability, T/C (second compound 10 µM, first compound 0.3 µM): 44.1%

IC50 (curve of first compound, second compound 0.00316 µM): 260 nM | IC50 (curve of first compound, second compound 0.01 µM): 677 nM | IC50 [1]: 436 nM | IC50 [2]: 593 nM | IC50 [3]: > 1000 nM | IC50 [4]: 281 nM
Structure (SMILES): O=C(c1ccc(F)c(F)c1Nc1ccc(I)cc1F)N1CC(O)([C@@H]2CCCCN2)C1 + C=CC(=O)N1CCN(c2nc(OCC3CCCN3C)nc3c(F)c(-c4nc(N)cc(C)c4C(F)(F)F)c(Cl)cc23)C(C)C1
viability, T/C (second compound 0.00316 µM, first compound 0.00316 µM): 91.4% | viability, T/C (second compound 0.00316 µM, first compound 0.01 µM): 116% | viability, T/C (second compound 0.00316 µM, first compound 0.0316 µM): 92.6% | viability, T/C (second compound 0.00316 µM, first compound 0.1 µM): 64.8% | viability, T/C (second compound 0.00316 µM, first compound 0.316 µM): 48% | viability, T/C (second compound 0.00316 µM, first compound 1 µM): 43.9% | viability, T/C (second compound 0.01 µM, first compound 0.00316 µM): 92.5% | viability, T/C (second compound 0.01 µM, first compound 0.01 µM): 116% | viability, T/C (second compound 0.01 µM, first compound 0.0316 µM): 79.7% | viability, T/C (second compound 0.01 µM, first compound 0.1 µM): 73.5% | viability, T/C (second compound 0.01 µM, first compound 0.316 µM): 53.5% | viability, T/C (second compound 0.01 µM, first compound 1 µM): 47.4% | viability, T/C (second compound 0.0316 µM, first compound 0.00316 µM): 104% | viability, T/C (second compound 0.0316 µM, first compound 0.01 µM): 117% | viability, T/C (second compound 0.0316 µM, first compound 0.0316 µM): 80.2% | viability, T/C (second compound 0.0316 µM, first compound 0.1 µM): 74.6% | viability, T/C (second compound 0.0316 µM, first compound 0.316 µM): 52.9% | viability, T/C (second compound 0.0316 µM, first compound 1 µM): 42.1% | viability, T/C (second compound 0.1 µM, first compound 0.00316 µM): 103% | viability, T/C (second compound 0.1 µM, first compound 0.01 µM): 104% | viability, T/C (second compound 0.1 µM, first compound 0.0316 µM): 94.4% | viability, T/C (second compound 0.1 µM, first compound 0.1 µM): 70.6% | viability, T/C (second compound 0.1 µM, first compound 0.316 µM): 60.6% | viability, T/C (second compound 0.1 µM, first compound 1 µM): 43% | viability, T/C (second compound 0.316 µM, first compound 0.00316 µM): 103% | viability, T/C (second compound 0.316 µM, first compound 0.01 µM): 113% | viability, T/C (second compound 0.316 µM, first compound 0.0316 µM): 68.3% | viability, T/C (second compound 0.316 µM, first compound 0.1 µM): 70.7% | viability, T/C (second compound 0.316 µM, first compound 0.316 µM): 61% | viability, T/C (second compound 0.316 µM, first compound 1 µM): 48.7% | viability, T/C (second compound 1 µM, first compound 0.00316 µM): 101% | viability, T/C (second compound 1 µM, first compound 0.01 µM): 112% | viability, T/C (second compound 1 µM, first compound 0.0316 µM): 97.9% | viability, T/C (second compound 1 µM, first compound 0.1 µM): 73.4% | viability, T/C (second compound 1 µM, first compound 0.316 µM): 45.8% | viability, T/C (second compound 1 µM, first compound 1 µM): 44.6%

IC50 (curve of compound): 89.6 nM [middle of 4 runs]
Structure (SMILES): Nc1ccn(C2OC(CO)C(O)C2(F)F)c(=O)n1 (stereo unspecified)
viability, T/C (compound 0.00316 µM): 102% [middle of 4 runs] | viability, T/C (compound 0.01 µM): 103% [middle of 4 runs] | viability, T/C (compound 0.0316 µM): 74.9% [middle of 4 runs] | viability, T/C (compound 0.1 µM): 49.9% [middle of 4 runs] | viability, T/C (compound 0.316 µM): 23.4% [middle of 4 runs] | viability, T/C (compound 1 µM): 15.6% [middle of 4 runs]
